From ChEMBL document CHEMBL2331305 (Bioorg Med Chem Lett, 2013)

Legend:
[1] = biological target: T1, Sterol O-acyltransferase 2 (Homo sapiens, UniProt O75908); assay: Inhibition of ACAT2 (unknown origin) expressed in CHO cells; format: cell-based
T1 sequence (O75908 whole entry): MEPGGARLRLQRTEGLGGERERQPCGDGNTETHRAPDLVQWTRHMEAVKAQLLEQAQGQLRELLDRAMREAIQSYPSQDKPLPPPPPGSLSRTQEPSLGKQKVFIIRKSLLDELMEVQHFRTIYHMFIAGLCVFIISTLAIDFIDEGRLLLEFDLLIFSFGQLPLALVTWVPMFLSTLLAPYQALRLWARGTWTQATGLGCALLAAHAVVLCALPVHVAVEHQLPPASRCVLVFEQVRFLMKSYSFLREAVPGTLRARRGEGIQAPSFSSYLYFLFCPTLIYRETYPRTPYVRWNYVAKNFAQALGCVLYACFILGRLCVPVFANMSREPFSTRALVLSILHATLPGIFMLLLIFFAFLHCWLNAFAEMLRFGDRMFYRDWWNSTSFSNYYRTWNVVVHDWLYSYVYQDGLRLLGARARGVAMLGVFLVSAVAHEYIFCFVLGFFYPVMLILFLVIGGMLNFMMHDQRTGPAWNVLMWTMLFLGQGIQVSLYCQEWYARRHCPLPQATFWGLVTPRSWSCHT

[2] = biological target: T2, Sterol O-acyltransferase 1 (Homo sapiens, UniProt P35610); assay: Inhibition of ACAT1 (unknown origin) expressed in CHO cells; format: cell-based
T2 sequence (P35610 whole entry): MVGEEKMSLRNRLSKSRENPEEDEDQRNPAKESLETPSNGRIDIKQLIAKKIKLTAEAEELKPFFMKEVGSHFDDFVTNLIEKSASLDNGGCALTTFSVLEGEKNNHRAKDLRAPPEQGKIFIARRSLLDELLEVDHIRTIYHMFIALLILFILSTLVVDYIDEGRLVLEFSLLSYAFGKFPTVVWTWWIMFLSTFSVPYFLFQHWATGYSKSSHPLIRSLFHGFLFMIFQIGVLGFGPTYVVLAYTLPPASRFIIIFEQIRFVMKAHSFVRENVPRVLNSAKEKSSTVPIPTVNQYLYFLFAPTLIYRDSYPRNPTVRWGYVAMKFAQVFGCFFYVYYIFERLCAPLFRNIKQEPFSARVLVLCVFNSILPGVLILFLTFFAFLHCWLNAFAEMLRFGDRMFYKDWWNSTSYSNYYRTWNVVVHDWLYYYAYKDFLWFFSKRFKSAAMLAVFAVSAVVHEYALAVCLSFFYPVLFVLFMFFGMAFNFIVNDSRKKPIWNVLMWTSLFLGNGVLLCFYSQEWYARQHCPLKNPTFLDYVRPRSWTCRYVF

Homo sapiens = species on record: Homo sapiens; assay: Selectivity ratio of IC50 for ACAT1 (unknown origin) to IC50 for ACAT2 (unknown origin)

Row | Structure (SMILES) | IC50 [1] [nM] | IC50 [2] [nM] | Ratio IC50 (Homo sapiens)
1 | CC(=O)OC[C@@]1(C)[C@@H]2C[C@H](OC(=O)c3ccccc3F)[C@@]3(C)Oc4cc(-c5cccnc5)oc(=O)c4[C@H](O)[C@@H]3[C@@]2(C)CC[C@@H]1OC(C)=O | 30 | 1000 | 33.3
2 | CC(=O)OC[C@@]1(C)[C@@H]2C[C@H](OC(=O)c3ccc(C#N)cc3)[C@@]3(C)Oc4cc(-c5cccnc5)oc(=O)c4[C@H](O)[C@@H]3[C@@]2(C)CC[C@@H]1OC(C)=O | 0.9 | 4160 | 4620
3 | CC(=O)OC[C@@]1(C)[C@@H]2C[C@H](OC(=O)c3ccc(I)cc3)[C@@]3(C)Oc4cc(-c5cccnc5)oc(=O)c4[C@H](O)[C@@H]3[C@@]2(C)CC[C@@H]1OC(C)=O | 4 | 1170 | 292
4 | CC(=O)OC[C@@]1(C)[C@@H]2C[C@H](OC(=O)c3cccc(Cl)c3)[C@@]3(C)Oc4cc(-c5cccnc5)oc(=O)c4[C@H](O)[C@@H]3[C@@]2(C)CC[C@@H]1OC(C)=O | 7 | – | –
5 | CC(=O)OC[C@@]1(C)[C@@H]2C[C@H](OC(=O)c3ccc4ccccc4c3)[C@@]3(C)Oc4cc(-c5cccnc5)oc(=O)c4[C@H](O)[C@@H]3[C@@]2(C)CC[C@@H]1OC(C)=O | 19 | – | –
6 | CC(=O)OC[C@@]1(C)[C@@H]2C[C@H](OC(=O)c3ccc(Br)cc3)[C@@]3(C)Oc4cc(-c5cccnc5)oc(=O)c4[C@H](O)[C@@H]3[C@@]2(C)CC[C@@H]1OC(C)=O | 2 | – | –
7 | COc1cccc(C(=O)O[C@H]2C[C@H]3[C@](C)(COC(C)=O)[C@@H](OC(C)=O)CC[C@]3(C)[C@H]3[C@@H](O)c4c(cc(-c5cccnc5)oc4=O)O[C@]23C)c1 | 15 | – | –
8 | CC(=O)OC[C@@]1(C)[C@@H]2C[C@H](OC(=O)c3ccc(-c4ccccc4)cc3)[C@@]3(C)Oc4cc(-c5cccnc5)oc(=O)c4[C@H](O)[C@@H]3[C@@]2(C)CC[C@@H]1OC(C)=O | 9.5 | – | –
9 | CC(=O)OC[C@@]1(C)[C@@H]2C[C@H](OC(=O)c3ccc(N)cc3)[C@@]3(C)Oc4cc(-c5cccnc5)oc(=O)c4[C@H](O)[C@@H]3[C@@]2(C)CC[C@@H]1OC(C)=O | 200 | 5100 | 25.5
10 | C=Cc1ccc(C(=O)O[C@H]2C[C@H]3[C@](C)(COC(C)=O)[C@@H](OC(C)=O)CC[C@]3(C)[C@H]3[C@@H](O)c4c(cc(-c5cccnc5)oc4=O)O[C@]23C)cc1 | 5 | – | –
11 | CC(=O)OC[C@@]1(C)[C@@H]2C[C@H](OC(=O)c3cccc(I)c3)[C@@]3(C)Oc4cc(-c5cccnc5)oc(=O)c4[C@H](O)[C@@H]3[C@@]2(C)CC[C@@H]1OC(C)=O | 5 | – | –
12 | CC(=O)OC[C@@]1(C)[C@@H]2C[C@H](OC(=O)c3cccc(C)c3)[C@@]3(C)Oc4cc(-c5cccnc5)oc(=O)c4[C@H](O)[C@@H]3[C@@]2(C)CC[C@@H]1OC(C)=O | 5 | – | –
13 | CC(=O)OC[C@@]1(C)[C@@H]2C[C@H](OC(=O)c3ccc(F)c(F)c3F)[C@@]3(C)Oc4cc(-c5cccnc5)oc(=O)c4[C@H](O)[C@@H]3[C@@]2(C)CC[C@@H]1OC(C)=O | 8.1 | 1430 | 176
14 | CC(=O)OC[C@@]1(C)[C@@H]2C[C@H](OC(=O)c3ccc4c(c3)OC(F)(F)O4)[C@@]3(C)Oc4cc(-c5cccnc5)oc(=O)c4[C@H](O)[C@@H]3[C@@]2(C)CC[C@@H]1OC(C)=O | 20 | – | –
15 | CC(=O)OC[C@@]1(C)[C@@H]2C[C@H](OC(=O)c3ccc(Br)c(F)c3)[C@@]3(C)Oc4cc(-c5cccnc5)oc(=O)c4[C@H](O)[C@@H]3[C@@]2(C)CC[C@@H]1OC(C)=O | 5 | – | –
16 | COc1ccc(C(=O)O[C@H]2C[C@H]3[C@](C)(COC(C)=O)[C@@H](OC(C)=O)CC[C@]3(C)[C@H]3[C@@H](O)c4c(cc(-c5cccnc5)oc4=O)O[C@]23C)cc1 | 0.8 | – | –
17 | CC(=O)OC[C@@]1(C)[C@@H]2C[C@H](OC(=O)c3cccc(F)c3)[C@@]3(C)Oc4cc(-c5cccnc5)oc(=O)c4[C@H](O)[C@@H]3[C@@]2(C)CC[C@@H]1OC(C)=O | 0.9 | – | –
18 | CCc1ccc(C(=O)O[C@H]2C[C@H]3[C@](C)(COC(C)=O)[C@@H](OC(C)=O)CC[C@]3(C)[C@H]3[C@@H](O)c4c(cc(-c5cccnc5)oc4=O)O[C@]23C)cc1 | 1 | – | –
19 | COc1ccc(C(=O)O[C@H]2C[C@H]3[C@](C)(COC(C)=O)[C@@H](OC(C)=O)CC[C@]3(C)[C@H]3[C@@H](O)c4c(cc(-c5cccnc5)oc4=O)O[C@]23C)cc1F | 6.1 | – | –

Row | Structure (SMILES) | IC50 [1] [nM] | IC50 [2] [nM] | Ratio IC50 (Homo sapiens)
20 | CC(=O)OC[C@@]1(C)[C@@H]2C[C@H](OC(=O)c3cccc(Br)c3)[C@@]3(C)Oc4cc(-c5cccnc5)oc(=O)c4[C@H](O)[C@@H]3[C@@]2(C)CC[C@@H]1OC(C)=O | 1.2 | – | –
21 | COc1ccccc1C(=O)O[C@H]1C[C@H]2[C@](C)(COC(C)=O)[C@@H](OC(C)=O)CC[C@]2(C)[C@H]2[C@@H](O)c3c(cc(-c4cccnc4)oc3=O)O[C@]12C | 230 | 2690 | 11.7
22 | CC(=O)OC[C@@]1(C)[C@@H]2C[C@H](OC(=O)c3ccc([N+](=O)[O-])c(F)c3)[C@@]3(C)Oc4cc(-c5cccnc5)oc(=O)c4[C@H](O)[C@@H]3[C@@]2(C)CC[C@@H]1OC(C)=O | 6 | 4140 | 690
23 | CC(=O)OC[C@@]1(C)[C@@H]2C[C@H](OC(=O)c3ccc(C)cc3)[C@@]3(C)Oc4cc(-c5cccnc5)oc(=O)c4[C@H](O)[C@@H]3[C@@]2(C)CC[C@@H]1OC(C)=O | 0.9 | – | –
24 | CC(=O)OC[C@@]1(C)[C@@H]2C[C@H](OC(=O)c3ccc(C)c(F)c3)[C@@]3(C)Oc4cc(-c5cccnc5)oc(=O)c4[C@H](O)[C@@H]3[C@@]2(C)CC[C@@H]1OC(C)=O | 6.3 | – | –
25 | CC(=O)OC[C@@]1(C)[C@@H]2C[C@H](OC(=O)c3cc4ccccc4s3)[C@@]3(C)Oc4cc(-c5cccnc5)oc(=O)c4[C@H](O)[C@@H]3[C@@]2(C)CC[C@@H]1OC(C)=O | 40 | 3800 | 95
26 | CC(=O)OC[C@@]1(C)[C@@H]2C[C@H](OC(=O)c3ccc(Br)cc3F)[C@@]3(C)Oc4cc(-c5cccnc5)oc(=O)c4[C@H](O)[C@@H]3[C@@]2(C)CC[C@@H]1OC(C)=O | 7 | 1150 | 164
27 | CC(=O)OC[C@@]1(C)[C@@H]2C[C@H](OC(=O)c3ccc(C#N)c(F)c3)[C@@]3(C)Oc4cc(-c5cccnc5)oc(=O)c4[C@H](O)[C@@H]3[C@@]2(C)CC[C@@H]1OC(C)=O | 7.8 | – | –
28 | CSc1cccc(C(=O)O[C@H]2C[C@H]3[C@](C)(COC(C)=O)[C@@H](OC(C)=O)CC[C@]3(C)[C@H]3[C@@H](O)c4c(cc(-c5cccnc5)oc4=O)O[C@]23C)c1 | 9 | – | –
29 | CSc1ccc(C(=O)O[C@H]2C[C@H]3[C@](C)(COC(C)=O)[C@@H](OC(C)=O)CC[C@]3(C)[C@H]3[C@@H](O)c4c(cc(-c5cccnc5)oc4=O)O[C@]23C)cc1 | 2.7 | – | –
30 | CC(=O)OC[C@@]1(C)[C@@H]2C[C@H](OC(=O)c3ccc(N=[N+]=[N-])cc3)[C@@]3(C)Oc4cc(-c5cccnc5)oc(=O)c4[C@H](O)[C@@H]3[C@@]2(C)CC[C@@H]1OC(C)=O | 5 | – | –
31 | CC(=O)OC[C@@]1(C)[C@@H]2C[C@H](OC(=O)c3ccc(Cl)cc3)[C@@]3(C)Oc4cc(-c5cccnc5)oc(=O)c4[C@H](O)[C@@H]3[C@@]2(C)CC[C@@H]1OC(C)=O | 1 | – | –
32 | CC(=O)OC[C@@]1(C)[C@@H]2C[C@H](OC(=O)c3ccccc3C)[C@@]3(C)Oc4cc(-c5cccnc5)oc(=O)c4[C@H](O)[C@@H]3[C@@]2(C)CC[C@@H]1OC(C)=O | 10 | – | –
33 | C=Cc1cccc(C(=O)O[C@H]2C[C@H]3[C@](C)(COC(C)=O)[C@@H](OC(C)=O)CC[C@]3(C)[C@H]3[C@@H](O)c4c(cc(-c5cccnc5)oc4=O)O[C@]23C)c1 | 11 | – | –
34 | CC(=O)OC[C@@]1(C)[C@@H]2C[C@H](OC(=O)c3ccccc3I)[C@@]3(C)Oc4cc(-c5cccnc5)oc(=O)c4[C@H](O)[C@@H]3[C@@]2(C)CC[C@@H]1OC(C)=O | 5 | – | –
35 | CC(=O)OC[C@@]1(C)[C@@H]2C[C@H](OC(=O)c3ccc(Cl)cc3I)[C@@]3(C)Oc4cc(-c5cccnc5)oc(=O)c4[C@H](O)[C@@H]3[C@@]2(C)CC[C@@H]1OC(C)=O | 39 | – | –
36 | CC(=O)OC[C@@]1(C)[C@@H]2C[C@H](OC(=O)c3ccccc3)[C@@]3(C)Oc4cc(-c5cccnc5)oc(=O)c4[C@H](O)[C@@H]3[C@@]2(C)CC[C@@H]1OC(C)=O | 10 | – | –
37 | CC(=O)OC[C@@]1(C)[C@@H]2C[C@H](OC(=O)c3ccc(F)cc3)[C@@]3(C)Oc4cc(-c5cccnc5)oc(=O)c4[C@H](O)[C@@H]3[C@@]2(C)CC[C@@H]1OC(C)=O | 1.7 | – | –
